{"source": "patent US20180008523A1", "about": "“ONYCHOMYCOSIS TREATMENT SYSTEM AND METHOD” (DEVICEFARM, INC., priority 2014, published 2018)", "test_system": "T. rubrum", "test": "Eradication of T. rubrum through a bovine hoof disk (modified Franz-type diffusion cell), colony count after treatment", "assay_type": "cell-based, Trichophyton rubrum", "conditions": "3 ul PFD on hoof immediately before 45 minutes of plasma treatment; seven days of incubation; 94% for one hoof, 100% (no colonies) for the other two", "description": "Eradication of T. rubrum through a bovine hoof using Perfluorode alin (PFD) facilitator and an SMD plasma-generating device.\nThe in vitro test model uses a bovine, hoof disk, a surrogate nail model established in the literature. It is used along with a modified Franz-type diffusion cell to isolate the fungal contaminated side of the hoof in an enclosed chamber that ensures the treatment path is through the hoof barrier. An equal amount of T. rubrum is pipetted onto each hoof disc consisting of a 100 ul suspension. Each hoof disk is then placed fungus side down into the modified Franz cell and sealed with an O-ring. Each hoof is then plasma treated for 45 minutes where the average thickness of hoof disks is 0.35 mm. Eight hoof disks were treated as: • a. Control that is placed directly into the wash tube without any treatment • b. Two PFD-only hooves had 3 ul PFD pipetted directly onto the hoof opposite side from the fungus. This was allowed to sit for 45 minutes in the hood before placing in the wash tube. • c. Two Plasma treatment only hooves get just a 45 minute plasma is treatment (i.e., no PFD). • d. Three Plasma treatment with PFD hooves had 3 ul PFD pipetted directly onto the hoof opposite side from the fungus immediately before applying plasma treatment.\nAfter treatment, each hoof went through a fungal collection protocol consisting of washing, dilution, plating and incubation. […]", "note": "Values joined by “and” are separate entries in the source; they are usually repeats but may differ in a detail not shown here. Equal entries are not always repeated.", "data": [{"smiles": "FC1(F)C(F)(F)C(F)(F)C2(F)C(F)(F)C(F)(F)C(F)(F)C(F)(F)C2(F)C1(F)F", "note": "(stereo not shown) [PFD, perfluorodecalin]", "values": [{"measurement": "colony reduction compared to control", "value": "94% and 100%"}]}]}
